Measurements reported in patent US11479536B1 (King Abdulaziz University, priority 2022, dated 2022).

What was measured:
AMPK (phospho-protein) = experiment: Phosphoproteome array test, phospho-AMPK signal in lysates of treated HL-60 cells; type: cell-based, human
Method: The phosphorylation profile of AMPK kinase (among other 37 kinases) was performed using the Proteome Profiler Human Phospho-Kinase Antibody Array Kit by R&D Systems (Minneapolis, Minn., USA) according to the protocol. Briefly, the total cellular protein was extracted using the Lysis buffer and was quantified using Bio-Rad DC Protein Assay kit (Hercules, Calif., USA). Nitrocellulose membrane set (A&B), pre-spotted with kinase-specific capture antibodies, were first blocked with Array Buffer-1 at RT for 30 min on a rocking platform shaker. Approximately 600 μg of protein concentrate was diluted in the buffer provided and was added onto the membrane set, and the membranes were incubated overnight at 4° C. in an 8-well plate. Subsequently, membranes were washed with Wash Buffer and incubated with appropriate Detection Antibody cocktails for 2 h at RT. Streptavadin-HRP (1:2000) was added onto membranes and incubated for 30 min at RT. Membranes were washed, and Chemiluminescent Detection Reagents 1&2 were applied in equal volumes for detection. The signals were detected on C-DiGit® Blot Scanner (LI-COR, Odyssey Imaging Systems, Lincoln, Nebr., USA) using Image Studio 5.0 software.

AMPK (A1/B1/G2) = molecular target: T1, AMPK (A1/B1/G2) (Homo sapiens, UniProt Q13131+Q9UGJ0+Q9Y478); experiment: Cell-free AMPK inhibition assay, AMPK (A1/B1/G2) Kinase Enzyme system; type: biochemical; conditions: recombinant full-length human AMPK
T1 construct: This system includes a recombinant full-length human AMPK enzyme; purchased Promega
Method: The inhibitory effect of serial concentrations of MAK compounds on AMPK Kinase activity was investigated using the highly sensitive AMPK (A1/B1/G2) Kinase Enzyme assay system (Promega, Madison Wis. USA). This system includes a recombinant full-length human AMPK enzyme and a substrate for the enzyme. The experiment was conducted according to the manufacturer's instructions in the provided protocol. Mean values of replicates were calculated in comparison to the control group.

MCF7 spheroids [1] = experiment: Live and dead assay of tumor spheroids, MCF7; type: cell-based, human; conditions: 48 h post treatment, control 10.33±2.40%
Method: (§1) The Live/Dead assay contains a mixture of two staining fluorescent dyes that label live and dead cells to enable differentiation between them. The cell viability of the cells in response to the treatment with MAK compounds was examined. The cells were grown for 48 hours and treated with MAK compound for additional 48 hours, then Cytox RED solution reagent was added. After incubation at 37° C. under 5% CO2 for 1 hour, the samples were immediately analyzed by flow cytometry. Mean values and standard deviation of replicates were calculated in comparison to the control group.

T47D spheroids [2] = experiment: Live and dead assay of tumor spheroids, T47D; type: cell-based, human; conditions: 48 h post treatment, control 2.60±0.31%
Method: as §1

MCF7 spheroids [3] = experiment: Reactive oxygen species (CellROX) assay, MCF7 spheroids; type: cell-based, human; conditions: 48 h treatment, CellROX Green
Method: (§2) The CELLROX (Invitrogen) assay was used to measure the level of reactive oxygen species (ROS) in live cells. […] The technique was used to investigate the capability of tested compounds to induce intracellular ROS. After forming the spheroids for 48 hours and treating them for additional 48 hours with MAK compound, spheroids were incubated in culture medium with 500 nM CellROX for 60 minutes at 37° C. in presence of 5% CO2, and the samples were immediately analyzed on flow cytometry using 488-nm excitation for the CellROX® Green.

T47D spheroids [4] = experiment: Reactive oxygen species (CellROX) assay, T47D spheroids; type: cell-based, human; conditions: 48 h treatment, CellROX Green
Method: as §2

CYP3A4 = molecular target: T2, CYP3A4 (Homo sapiens, UniProt P08684); experiment: Inhibition assay of human CYP450 enzymes, 3A4; type: in vitro ADME
T2 construct: purchased Fisher Scientific; host or cells: insect supersomes
Method: The two compounds MAK-1 and MAK-6 were assessed for its ability to inhibit the three major human CYP450 enzymes, 3A4, 2D6 and 2C9. Assays were run in triplicate. Expressed enzymes in insect supersomes (Fisher Scientific, Waltham, Mass.) were used to minimize non-specific binding and membrane partitioning issues (McMasters et al., 2007). The 3A4 assay uses testosterone as a substrate and analysis was performed by LC/MS/MS on a Waters Xevo TQ instrument as described above using positive electrospray ionization. Assay acceptance criteria was 20% for all standards and 25% for the LLOQ. The 2D6 and 2C9 assays use fluorescent substrates (3-[2-(N,N-diethylamino)ethyl]-7-methoxy-4-methylcoumarin for 2D6; 7-methoxy-4-(trifluoromethyl)coumarin for 2C9) and were analyzed on an Envision plate reader. GraphPad® Prism v 5.04 was used for nonlinear fitting of data to generate IC50 values.

[5] = test system: human skin fibroblasts (HSF); experiment: Cytotoxicity on human skin fibroblasts (SRB method); type: cell-based
Method: In addition to have a good physicochemical profile, it is important for a studied lead to differentiate between cancer cells and highly proliferating non-cancerous cells. Therefore, we assessed compounds MAK-1 and MAK-6 for both the in silico and in vitro physicochemical characteristics as well as for cytotoxic effect on human skin fibroblasts (SKF) cell lines. Cytotoxicity was determined using Sulforhodamine B (SRB) method. Exponentially growing human skin fibroblast cells (Nawah Scientific, Cairo, Egypt) were collected using 0.25% Trypsin-EDTA and were then seeded in 96-well plates at a density of 1000-2000 cells/well in 10% FBS and penicillin/streptomycin supplemented RPMI-1640 medium. After 24 h, cells were treated with different concentrations of test compounds and incubated for 72 h at 37° C. in a humidified atmosphere containing 5% CO2. Next, the cells were fixed by adding trichloroacetic acid (TCA, 10% final conc. in wells) directly to the wells and incubated for 1 h at 4° C., then cells were washed with distilled water 5 times to remove excess TCA, media, serum proteins, and metabolites, followed by air drying. After that, the fixed cells were stained with 0.4% SRB dissolved in 1% acetic acid for 10 min at room temperature, and excess stain was removed by quickly rinsing with 1% acetic acid. The residual acetic acid was removed completely by air drying the plates for 24 h, and the dye was solubilized with Tris buffer (pH=7.4, 10 mM) for 5 min on a shaker at 1600 rpm. The optical density (OD) of each well was measured spectrophotometrically at 564 nm with an ELISA microplate reader (ChroMate-4300, FL, USA). The IC50 values were calculated according to the equation for Boltzman sigmoidal concentration—response curve using the nonlinear regression fitting models (Graph Pad, Prism Version 5).

T1 sequence (Q13131 whole entry): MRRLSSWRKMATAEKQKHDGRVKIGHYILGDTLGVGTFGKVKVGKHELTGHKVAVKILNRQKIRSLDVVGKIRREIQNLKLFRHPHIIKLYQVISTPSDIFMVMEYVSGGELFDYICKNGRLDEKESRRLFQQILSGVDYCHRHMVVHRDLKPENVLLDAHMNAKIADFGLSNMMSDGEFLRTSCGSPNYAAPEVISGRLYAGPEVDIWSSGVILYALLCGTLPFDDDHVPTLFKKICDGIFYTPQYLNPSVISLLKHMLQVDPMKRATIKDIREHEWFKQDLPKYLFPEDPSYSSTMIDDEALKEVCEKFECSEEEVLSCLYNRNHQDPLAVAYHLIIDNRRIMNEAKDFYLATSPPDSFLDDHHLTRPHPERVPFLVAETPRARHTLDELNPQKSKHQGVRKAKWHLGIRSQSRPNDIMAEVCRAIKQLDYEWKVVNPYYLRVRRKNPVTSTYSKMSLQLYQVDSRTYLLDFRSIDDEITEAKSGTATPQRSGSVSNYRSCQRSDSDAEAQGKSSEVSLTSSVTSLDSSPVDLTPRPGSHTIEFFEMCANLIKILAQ
T1 sequence (Q9Y478 whole entry partner): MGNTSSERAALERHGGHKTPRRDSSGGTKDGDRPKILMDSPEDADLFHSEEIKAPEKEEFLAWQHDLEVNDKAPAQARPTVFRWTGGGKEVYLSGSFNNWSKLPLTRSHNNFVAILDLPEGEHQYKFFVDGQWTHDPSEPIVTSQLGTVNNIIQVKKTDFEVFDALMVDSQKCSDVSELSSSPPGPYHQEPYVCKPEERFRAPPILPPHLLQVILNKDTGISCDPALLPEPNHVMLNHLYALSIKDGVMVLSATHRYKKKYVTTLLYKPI
T1 sequence (Q9UGJ0 whole entry partner): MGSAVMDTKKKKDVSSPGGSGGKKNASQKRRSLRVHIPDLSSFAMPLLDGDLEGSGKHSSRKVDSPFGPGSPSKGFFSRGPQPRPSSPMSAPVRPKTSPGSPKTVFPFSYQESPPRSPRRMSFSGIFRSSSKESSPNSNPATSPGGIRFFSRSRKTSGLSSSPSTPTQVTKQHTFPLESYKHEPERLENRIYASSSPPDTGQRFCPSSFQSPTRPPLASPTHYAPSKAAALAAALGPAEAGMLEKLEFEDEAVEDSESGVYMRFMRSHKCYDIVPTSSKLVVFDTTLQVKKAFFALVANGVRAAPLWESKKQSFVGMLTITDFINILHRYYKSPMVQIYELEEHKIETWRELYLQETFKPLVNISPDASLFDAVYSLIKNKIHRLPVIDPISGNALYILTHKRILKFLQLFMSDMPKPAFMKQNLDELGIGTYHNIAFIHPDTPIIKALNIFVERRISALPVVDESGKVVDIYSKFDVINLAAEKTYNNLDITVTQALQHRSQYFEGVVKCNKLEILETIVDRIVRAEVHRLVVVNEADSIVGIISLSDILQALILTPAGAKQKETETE
T2 sequence (P08684 whole entry): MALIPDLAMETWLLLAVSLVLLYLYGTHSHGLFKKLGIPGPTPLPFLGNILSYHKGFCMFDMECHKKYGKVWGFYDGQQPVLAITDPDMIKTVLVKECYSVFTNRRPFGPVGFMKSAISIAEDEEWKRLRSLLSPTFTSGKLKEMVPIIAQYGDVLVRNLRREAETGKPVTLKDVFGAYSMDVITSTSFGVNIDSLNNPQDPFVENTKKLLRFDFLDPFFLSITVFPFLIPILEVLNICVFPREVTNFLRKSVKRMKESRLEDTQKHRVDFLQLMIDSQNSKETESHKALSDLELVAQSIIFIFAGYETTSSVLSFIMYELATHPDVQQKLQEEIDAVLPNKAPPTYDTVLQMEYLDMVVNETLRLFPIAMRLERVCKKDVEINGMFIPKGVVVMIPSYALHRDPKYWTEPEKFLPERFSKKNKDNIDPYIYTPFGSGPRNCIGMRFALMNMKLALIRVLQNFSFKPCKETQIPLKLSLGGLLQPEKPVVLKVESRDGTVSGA

SMILES	decrease of phospho-protein AMPK existence (AMPK (phospho-protein); compound at 6 μM) [%]	IC50 (AMPK (A1/B1/G2)) [nM]	dead rate (dead cells), mean±SEM (MCF7 spheroids [1]) [%]	dead rate (dead cells), mean±SEM (T47D spheroids [2]) [%]	ROS level, treatment vs control (MCF7 spheroids [3]) [%]	ROS level, treatment vs control (T47D spheroids [4]) [%]	inhibition of CYP3A4 (CYP3A4; concentrations up to 10 μM)	normal cells inhibited at x-fold higher concentrations than MCF7 breast cancer cells ([5]; HSF vs MCF7) [fold]	decrease of phospho-protein AMPK existence (AMPK (phospho-protein); compound at 8 μM) [%]	inhibition of CYP3A4 (CYP3A4; concentration not given)	safety to normal cells (human skin fibroblasts) ([5]; HSF, SRB, 72 h)
COc1cccc(C(=O)Nc2ccc(CC(=O)NCc3ccccc3)cc2)c1 [MAK-1, N-(4-(2-(benzylamino)-2-oxoethyl)phenyl)-3-methoxybenzamide]	61.8	4.8	36.33±0.88	42.43±0.49	10	4	no inhibition	7	–	–	–
O=C(Cc1ccc(NC(=O)c2cccc(Cl)c2)cn1)NCc1ccccc1 [MAK-6, N-(6-(2-(benzylamino)-2-oxoethyl)pyridin-3-yl)-3-chlorobenzamide]	–	5.6	34.27±0.49	37.97±0.27	6	6	–	–	92.1	did not display any inhibitory activity	highly safe
